Results on 3 molecules are retold here after patent publication US20150157597A1, “NEURODEGENERATIVE DISEASE TREATMENT USING JAK/STAT INHIBITION” (Uinversity of South Florida, priority 2007, published 2015).

The test system of one data set is STAT1. Nature of the data set: STAT1 phosphorylation by Western blot in primary cultured neurons. The format is cell-based, mouse. The procedure:
(§1) Normal C57BL/6 primary cultured neuronal cells as well as STAT1-deficient primary neuronal cells were isolated and cultured as described previously (Chin et al., 1997). Normal cells were co-treated with either gp120 or Tat (250 ng/ml) with or without IFN-γ (100 U/ml) and/or JAK inhibitor (50 nM). STAT1-deficient cells were treated with HIV-1 gp120 or HIV-1 Tat (250 ng/ml) in the presence or absence of IFN-γ (100 U/ml) for 12 h. At the end of the treatment period, neuronal cells were washed in ice-cold PBS three times and lysed in ice-cold lysis buffer. After incubation for 30 mm on ice, samples were centrifuged at high speed for 15 mm, and supernatants were collected. Total protein content was estimated by using the Bio-Rad protein assay. For phosphorylation of JAK1, membranes were first hybridized with phosphospecific Tyr1022/1023 JAK1 antibody (Cell Signaling Technology, Beverly, Mass.) and then stripped and finally analyzed by total JAK1. For STAT1 phosphorylation, membranes were probed with a phospho-Ser727 STAT1 antibody (Cell Signaling Technology), stripped with stripping solution, and then re-probed with an antibody that recognizes total STAT1 (Cell Signaling Technology). […]
(§2) Western blot was performed as described previously (Tan et al., 2002). […] Densitometric analysis was done using the Fluor-S MultiImager™ with Quantity One™ software (Bio-Rad). […]
A general note: A western blot detects proteins with antibodies after separation by electrophoresis.

In data set [1] the test system is primary cultured neuronal cells. Description: Western blot band density ratio of Bcl-xL to Bax in primary neuron lysates. The class given is cell-based, mouse. The following applies: 12 h; for Neuronal injury, Western blot band density ratio of Bcl-xL to Bax: JAK inhibitor 50 nM, IFN-γ 100 U/ml with gp120 or Tat 250 ng/ml. The procedure: (§3) Primary cultures of mouse cortical neurons were prepared as described previously (Chin et al., 1997). Briefly, neuronal cells were isolated from newborn C57BL16 mice and seeded in 6-well tissue-culture plates at 2×10^5 cells/well for 48 h. […] In addition, to test whether EGCG could inhibit JAK/STAT1 signaling and neuronal damage induced by gp120 or/and Tat in the presence of IFN-γ, EGCG was also employed as the co-treatment. Cell culture supernatants were used for LDH assay while cell lysates were used for Western blot analysis of Bcl-xL and Bax proteins.
(§4) Normal C57BL/6 primary cultured neuronal cells as well as STAT1-deficient primary neuronal cells were isolated and cultured as described previously (Chin et al., 1997). Normal cells were co-treated with either gp120 or Tat (250 ng/ml) with or without IFN-γ (100 U/ml) and/or JAK inhibitor (50 nM). STAT1-deficient cells were treated with HIV-1 gp120 or HIV-1 Tat (250 ng/ml) in the presence or absence of IFN-γ (100 U/ml) for 12 h. At the end of the treatment period, neuronal cells were washed in ice-cold PBS three times and lysed in ice-cold lysis buffer. After incubation for 30 mm on ice, samples were centrifuged at high speed for 15 mm, and supernatants were collected. Total protein content was estimated by using the Bio-Rad protein assay. For phosphorylation of JAK1, membranes were first hybridized with phosphospecific Tyr1022/1023 JAK1 antibody (Cell Signaling Technology, Beverly, Mass.) and then stripped and finally analyzed by total JAK1. For STAT1 phosphorylation, membranes were probed with a phospho-Ser727 STAT1 antibody (Cell Signaling Technology), stripped with stripping solution, and then re-probed with an antibody that recognizes total STAT1 (Cell Signaling Technology). Alternatively, membranes with identical samples were probed either with phospho-JAK or STAT1 or with an antibody that recognizes total JAK or STAT1. Immunoblotting was performed with a primary antibody, followed by an anti-rabbit HRP-conjugated IgG secondary antibody as a tracer. After being washed in TBS, the membranes were incubated in the luminol reagent and exposed to film.
Western blot was performed as described previously (Tan et al., 2002). Briefly, for the in vivo studies left hemispheres of mouse brains were lysed in ice-cold lysis buffer and an aliquot corresponding to 50 μg of total protein was electrophoretically separated using 16.5% Tris-tricine gels. Electrophoresed proteins were then transferred to PVDF membranes (BioRad), washed in dH2O, and blocked for 1 h at ambient temperature in Tris-buffered saline containing 5% (w/v) nonfat dry milk. […] Densitometric analysis was done using the Fluor-S MultiImager™ with Quantity One™ software (Bio-Rad). […]

The next data set has as its system JAK1. Nature of the data set: JAK1 phosphorylation by Western blot in primary cultured neurons. The class given is cell-based, mouse. The procedure: as §1, §2
Data set [2] has as its system primary cultured neuronal cells. Nature of the data set: LDH release assay, primary cultured neurons challenged with gp120/Tat and IFN-γ. The format is cell-based, mouse. The note with it: for LDH release / Neuronal injury, LDH release: 12 h; for Neuronal injury, LDH release: JAK inhibitor 50 nM, IFN-γ 100 U/ml with gp120 or Tat 250 ng/ml. The procedure: as §3, §4
LOU release assay (Promega, Madison, Wis.) was performed as previously described (Tan et al., 2002). Briefly, after treatment at a variety of conditions, cell cultured media were collected for LOU release assay. Total LDH release was represent maximal lysis of target cells with 5% Triton X-100. Data are presented as mean±SD of LOU release.

For data set [3], the system named is C57BL/6 mice. Description: In vivo neurotoxicity, NeuN staining of cortical brain sections after i.c.v. injection. The arrangement: species or system mouse. The note with it: 24 h. The source says: (§5) Animals were anesthetized using isoflurane (chamber induction at 4-5% isoflurane, intubation and maintenance at 1-2%). After reflexes were checked to ensure that mice were unconscious, they were positioned on a stereotaxic frame (Stoelting Lab Standard) with ear-bars positioned and jaws fixed to a biting plate. The axis coordinates were taken from a mouse brain atlas, and a 5-mm sterile plastic guide cannula (21 GA; Plastic One, Inc., Roanoke, Va.) was implanted into the left lateral ventricle delimited from the stereotaxic coordinates (coordinates relative to bregma: −0.6 mm anterior/posterior, +1.2 mm medial/lateral, and −3.0 mm dorsal/ventral) using the stereotaxic device (Stoelting Lab Standard) and an attached probe (cannula) holder. IFN-γ (200 U/mouse) with HIV-1 protein gp120 (500 ng/mouse) or Tat (500 ng/mouse) or PBS (10 μl) was administered at the rate of 1 μl/min using a Hamilton syringe (modified with a solder stop to prevent over insertion of the needle) through the implanted cannula. […]
At sacrifice, mice were anesthetized with isofluorane and transcardially perfused with ice-cold physiological saline containing heparin (10 U/ml). […] After another cycle of washing, floating sections were mounted onto slides, dehydrated and coverslipped with Vectashield fluorescence mounting media (Vector Labs., Burlingame, Calif.). […]

The subject of data set [4] is C57BL/6 mice. Nature of the data set: In vivo neurotoxicity, Bcl-xL/Bax Western blot of brain homogenates. The arrangement: species or system mouse. The following applies: 24 h.
Excerpt: as §5, with “cannula. Correctness of the injection was confirmed by trypan blue dye administration and histological examination. The wounds were closed with 1-2 staples and mice were all observed until anesthesia had cleared.” for “cannula.”
as §2

Where [5] appears, read: EGCG at a range of doses co-incubated with IFN-γ 100 U/ml, 60 min.
[6] abbreviates: EGCG 20 μM, gp120 or Tat 500 ng/ml with IFN-γ 100 U/ml.
Where [7] appears, read: EGCG 50 mg/kg i.p., i.c.v. IFN-γ/gp120 or IFN-γ/gp120/Tat.
The mark [8] stands for this setting: IFN-γ 100 U/ml, time-dependently.
Where [9] appears, read: IFN-γ 100 U/ml added to gp120 or Tat 250 ng/ml.

Entries after “also recorded” stand apart in the source; their conditions may differ.

Regarding (-)-epigallocatechin-3-gallate [EGCG], the STAT1 phosphorylation entry in the data set on STAT1 (setting [5]) was “dose-dependent inhibition”. The “Ratio of Bcl-xL to Bax” value in data set [1] (setting [6]) is recorded as “increased”. Further, in the data set on JAK1 (setting [5]), the JAK1 phosphorylation result is reported as “dose-dependent inhibition”. For the same molecule, the LDH release entry in data set [2] (setting [6]) was “decreased”. Besides, in the data set on C57BL/6 mice [3] (setting [7]), the “Neuronal damage in cortical regions (NeuN)” value is listed as “marked reduction; also recorded: protective”. Moreover, in the data set with C57BL/6 mice [4] (setting [7]), the “Ratio of Bcl-xL to Bax in brain homogenates” value is listed as “significant increases”.

On to `CC(C)(C)c1nc2c3ccc(F)cc3c3c(=O)[nH]ccc3c2[nH]1` [JAK inhibitor, 2-(1,1-Dimethylethyl)-9-fluoro-3,6-dihydro-7H-benz[h] -imidaz[4,5-f] isoquinolin-7-one], for which the “Neuronal injury, Western blot band density ratio of Bcl-xL to Bax” value in data set [1] is given as “significantly inhibited”; in data set [1] (listed as JAK1 inhibitor) it was “greatly reduced”. The “Cell death and apoptosis indicators (LDH, Bcl-xL/Bax) versus control treatment group” value in data set [2] (JAK1 inhibitor, combination of gp120 and Tat included in the treatment) is on record as “did not return to baseline levels”. The “Neuronal injury, LDH release” value in data set [2] is “significantly inhibited”; in data set [2] (listed as JAK1 inhibitor), “greatly reduced”.

“IFN-γ: murine recombinant IFN-γ; R&D Systems; type II interferon, soluble cytokine”: the “Phosphorylation of STAT1” value in the data set on STAT1 (setting [8]) is “stimulates phosphorylation”. In addition, in data set [1] (setting [9]), the “Band density ratio of Bcl-xL to Bax” value is “reduced”. The “Phosphorylation of JAK1” value in the data set on JAK1 (setting [8]) was “stimulates phosphorylation”. Further, the LDH release entry in data set [2] (setting [9]) is on record as “significantly increased”. Further, the “Neuronal damage in cortical brain regions (NeuN)” value in the data set with C57BL/6 mice [3] (i.c.v. IFN-γ 200 U/mouse plus gp120 500 ng/mouse vs controls, IFN alone or gp120 alone) was “marked increase”. Moreover, the “Ratio of Bcl-xL to Bax in brain homogenates” value in the data set on C57BL/6 mice [4] (i.c.v. IFN-γ 200 U/mouse with gp120 or Tat 500 ng/mouse) was “significant reduction”.
